Results: US20100285959A1, “HERBICIDAL MIXTURES” (priority 2006, published 2010)

Assays:
[1] = test system: tropical spiderwort (COMBE); experiment: Test 12 field trial, preemergence; assay type: in vivo, Commelina benghalensis; design: scale not given here; details: Cpd 2 or Cpd 1 62 g a.i./ha, Diuron 2000 g a.i./ha
Description: In early-mid spring season, corn seeds (hybrid ‘Pioneer 3041’) were planted 5 cm deep and sugarcane nodes (variety RB-72.454) were planted 10 cm deep in separate plots in a clay soil having 2.6% organic matter and a pH of 5.6. Plots were 24 m long by 1.5 m wide with rows spaced 80 cm (corn) or 140 cm (sugarcane) apart. Corn seeds were spaced 15 cm apart and sugarcane nodes were spaced 10 cm apart within the rows. At the same time, weed seeds were broadcast over the surface of separate plots without a crop, one weed species per plot. The weed plots were rotary tilled to incorporate the weed seeds to a variety of depths. The field was managed using conventional tillage practices.

redroot pigweed (AMARE) = experiment: Test 2 field trial, preemergence; assay type: in vivo, Amaranthus retroflexus; design: scale not given here
Description: Corn seeds (hybrid ‘Pioneer 31G96’) were planted in mid spring season, 3.8 cm deep in a clay loam soil having 2% organic matter and a pH of 6.6. Plots were 6.1 m long by 3.0 m wide with rows spaced 76 cm apart. Seeds were spaced 15 cm apart within the rows. The field was managed using conventional tillage practices. […] A few of the weed species could not be evaluated at every timing. […] Results are the means of the three replicates.

common chickweed (STEME) = experiment: Test 9 field trial, emerged weeds before corn planting; assay type: in vivo, Stellaria media; details: g a.i./ha: Cpd 2 100, Glyphosate 1540, Paraquat 1150
Procedure: Corn seeds (hybrid ‘Pioneer 34M91 RR’) were planted in mid spring season, about 3.8 cm deep in a silty clay loam soil having a pH of 6.7. Plots were 9.1 m long by 3.0 m. The field was managed using no-till practices. […] Compound 2 and paraquat treatments, alone and in combination, also included a surfactant. Glyphosate, alone and with Compound 2, included ammonium sulfate in the treatment mixture. […] The effects on the weeds in the treated plots and untreated control plots were recorded 7, 14, 23, 30 and 57 days after application. Most of the weed species could not be evaluated at every timing. Corn response was only evaluated 57 days after application. […] Results are the means of the three replicates.

giant ragweed (AMBTR) = experiment: Test 14 field trial, preemergence, growth as percent of control; assay type: in vivo, Ambrosia trifida
Description: (§1) Corn seeds (hybrid ‘Pioneer 31G96 RR’) were planted in mid spring season, 3.8 cm deep in a clay loam soil having 2% organic matter and a pH of 6.6. Plots were 6.1 m long by 3.0 m wide with rows spaced 76 cm apart. Seeds were spaced 15 cm apart within the rows. The field was managed using conventional tillage practices. […] Yellow nutsedge was only evaluated 19 and 28 days after application, and ivyleaf morningglory could only be evaluated 28 days after application. […] Results are the means of the three replicates. This growth inhibition data was converted to results in the form of “plant growth as a percent of control plant growth” using the calculation “100 minus growth inhibition”. […] For “growth as a percent of control” data, Colby's Equation calculates the expected additive effect of herbicidal mixtures having two active ingredients as follows:
(§2) Ga+b=GaGb/100 • wherein Ga+b is the growth as a percent of control of plants treated with the mixture expected from additive contribution of the individual components, • Ga is the observed growth as a percent of control of plants treated with the first active ingredient at the same use rate as in the mixture, and • Gb is the observed growth as a percent of control of plants treated with the second active ingredient at the same use rate as in the mixture. For mixtures having three active ingredients, Colby's Equation to calculate the expected additive effect of herbicidal mixtures is as follows:
(§3) Ga+b+c=GaGbGc/10,000 • wherein Ga and Gb are as defined above and • Ga+b+c is the growth as a percent of control of plants treated with the mixture expected from additive contribution of the individual components, and • Gc is the observed growth as a percent of control of plants treated with the third active ingredient at the same use rate as in the mixture. When these two forms of Colby's Equation are used, if the observed effects on weeds are less than the expected values, the mixture is synergistic.

[2] = test system: ivyleaf morningglory (IPOHE); experiment: as above; assay type: in vivo, Ipomoea hederacea; details: 28 DAA
Description: as §1, §2, §3

[3] = test system: common lambsquarters (CHEAL); experiment: Test 21 growth chamber, postemergence; assay type: in vivo, Chenopodium album; details: 19 DAA
Procedure: A test was conducted to evaluate the effects on winter barley (HORVW, Hordeum vulgare L.), winter wheat (TRZAW, Triticum aestivum L.), and several weed species, of mixtures of Compound 2 with the commercial herbicide (2,4-dichlorophenoxy)acetic acid (2,4-D), an auxin mimic. […] Plants were treated postemergence at the 2-4 leaf growth stage, and each treatment was replicated one time. […] Plants were watered as needed. […] Results are from single replicates.

wild mustard (SINAR) = experiment: Test 23 growth chamber, postemergence; assay type: in vivo, Sinapis arvensis; details: 21 DAA
Procedure: A test was conducted to evaluate the effects on winter barley (HORVW, Hordeum vulgare L.), winter wheat (TRZAW, Triticum aestivum L.), and several weed species of mixtures of Compound 2 with the commercial herbicides (2,4-dichlorophenoxy)acetic acid (2,4-D) and (4-chloro-2-methylphenoxy)acetic acid (MCPA), auxin mimics. […] Plants were treated postemergence at the 2-4 leaf growth stage, and each treatment was replicated three times. […] Plants were watered as needed. […] Results are means of the three replicates.

[4] = 28 DAA, g a.i./ha: Cpd 2 25, Atrazine 250
[5] = 28 DAA, g a.i./ha: Cpd 2 50, Atrazine 500
[6] = 28 DAA, g a.i./ha: Cpd 2 75, Atrazine 750
[7] = 28 DAA, g a.i./ha: Cpd 2 100, Atrazine 1000
[8] = 28 DAA, g a.i./ha: Cpd 2 150, Atrazine 1500
[9] = 55 DAA, g a.i./ha: Cpd 2 25, Atrazine 250
[10] = 55 DAA, g a.i./ha: Cpd 2 50, Atrazine 500
[11] = 55 DAA, g a.i./ha: Cpd 2 75, Atrazine 750
[12] = 55 DAA, g a.i./ha: Cpd 2 100, Atrazine 1000
[13] = 55 DAA, g a.i./ha: Cpd 2 150, Atrazine 1500

SMILES	COMBE Obs ([1]; 15 DAA)	COMBE Obs ([1]; 29 DAA)	COMBE Obs ([1]; 48 DAA)	COMBE Obs ([1]; 61 DAA)	AMARE Obs (redroot pigweed (AMARE); [4])	AMARE Obs (redroot pigweed (AMARE); [5])	AMARE Obs (redroot pigweed (AMARE); [6])	AMARE Obs (redroot pigweed (AMARE); [7])	AMARE Obs (redroot pigweed (AMARE); [8])	AMARE Obs (redroot pigweed (AMARE); [9])	AMARE Obs (redroot pigweed (AMARE); [10])	AMARE Obs (redroot pigweed (AMARE); [11])	AMARE Obs (redroot pigweed (AMARE); [12])	AMARE Obs (redroot pigweed (AMARE); [13])	STEME Obs (common chickweed (STEME); 7 DAA) [%]	STEME Obs (common chickweed (STEME); 14 DAA) [%]	STEME Obs (common chickweed (STEME); 23 DAA) [%]	STEME Obs (common chickweed (STEME); 30 DAA) [%]	STEME Obs (common chickweed (STEME); 57 DAA) [%]	also measured
Nc1nc(C2CC2)nc(C(=O)O)c1Cl [Compound 1, 6-amino-5-chloro-2-cyclopropyl-4-pyrimidinecarboxylic acid]	60	40	40	0	–	–	–	–	–	–	–	–	–	–	–	–	–	–	–	–
COC(=O)c1nc(C2CC2)nc(N)c1Cl [Compound 2, methyl 6-amino-5-chloro-2-cyclopropyl-4-pyrimidinecarboxylate]	50	40	40	40	30	90	98	93	82	100	100	100	100	100	22	13	3	0	0	Obs growth % of control (giant ragweed (AMBTR); 19 DAA, 75 g a.i./ha): 65%; Obs growth % of control (giant ragweed (AMBTR); 19 DAA, 100 g a.i./ha): 73%; Obs growth % of control (giant ragweed (AMBTR); 28 DAA, 75 g a.i./ha): 100%; Obs growth % of control (giant ragweed (AMBTR); 28 DAA, 100 g a.i./ha): 23%; Obs growth % of control (giant ragweed (AMBTR); 56 DAA, 75 g a.i./ha): 20%; Obs growth % of control (giant ragweed (AMBTR); 56 DAA, 100 g a.i./ha): 18%; Obs growth % of control ([2]; 75 g a.i./ha): 0%; Obs growth % of control ([2]; 100 g a.i./ha): 0%; Postemergence CHEAL Obs ([3]; Cpd 2 alone 16 g a.i./ha): 60; Postemergence SINAR Obs (wild mustard (SINAR); Cpd 2 alone 4 g a.i./ha): 43; Postemergence SINAR Obs (wild mustard (SINAR); Cpd 2 alone 8 g a.i./ha): 53; Postemergence SINAR Obs (wild mustard (SINAR); Cpd 2 alone 16 g a.i./ha): 55
CCNc1nc(Cl)nc(NC(C)C)n1 [Atrazine, atrazine, reference compound]	–	–	–	–	72	97	90	100	100	95	99	100	100	100	–	–	–	–	–	–
CCc1cccc(C)c1N(C(=O)CCl)[C@@H](C)COC [S-Metolachlor, S-metolachlor, reference compound]	–	–	–	–	–	–	–	–	–	–	–	–	–	–	–	–	–	–	–	Obs growth % of control (giant ragweed (AMBTR); 19 DAA, 1870 g a.i./ha): 83%; Obs growth % of control (giant ragweed (AMBTR); 28 DAA, 1870 g a.i./ha): 88%; Obs growth % of control (giant ragweed (AMBTR); 56 DAA, 1870 g a.i./ha): 100%; Obs growth % of control ([2]; 1870 g a.i./ha): 0%
O=C(O)COc1ccc(Cl)cc1Cl [2,4-D, (2,4-dichlorophenoxy)acetic acid]	–	–	–	–	–	–	–	–	–	–	–	–	–	–	–	–	–	–	–	Postemergence CHEAL Obs ([3]; 2,4-D alone 125 g a.i./ha): 40; Postemergence CHEAL Obs ([3]; 2,4-D alone 250 g a.i./ha): 40; Postemergence SINAR Obs (wild mustard (SINAR); 2,4-D or MCPA alone 250 g a.i./ha): 65
O=C(O)CNCP(=O)(O)O [Glyphosate]	–	–	–	–	–	–	–	–	–	–	–	–	–	–	42	84	93	100	99	–
